ChEMBL document CHEMBL5728890, “HDAC6 inhibitors and imaging agents” (2021)

What was measured:
Histone deacetylase 1 = Histone deacetylase 1 (Homo sapiens, UniProt Q13547); experiment: (§1) IC50 Assay: IC50 measurements were conducted by BPS Biosciences (Table 1) or by Nanosyn (Table 1A) with an established fluorescence assay.
Histone deacetylase 4 = Histone deacetylase 4 (Homo sapiens, UniProt P56524); experiment: as §1
Histone deacetylase 9 = Histone deacetylase 9 (Homo sapiens, UniProt Q9UKV0); experiment: as §1
Sequence of Histone deacetylase 9 (Q9UKV0 whole entry): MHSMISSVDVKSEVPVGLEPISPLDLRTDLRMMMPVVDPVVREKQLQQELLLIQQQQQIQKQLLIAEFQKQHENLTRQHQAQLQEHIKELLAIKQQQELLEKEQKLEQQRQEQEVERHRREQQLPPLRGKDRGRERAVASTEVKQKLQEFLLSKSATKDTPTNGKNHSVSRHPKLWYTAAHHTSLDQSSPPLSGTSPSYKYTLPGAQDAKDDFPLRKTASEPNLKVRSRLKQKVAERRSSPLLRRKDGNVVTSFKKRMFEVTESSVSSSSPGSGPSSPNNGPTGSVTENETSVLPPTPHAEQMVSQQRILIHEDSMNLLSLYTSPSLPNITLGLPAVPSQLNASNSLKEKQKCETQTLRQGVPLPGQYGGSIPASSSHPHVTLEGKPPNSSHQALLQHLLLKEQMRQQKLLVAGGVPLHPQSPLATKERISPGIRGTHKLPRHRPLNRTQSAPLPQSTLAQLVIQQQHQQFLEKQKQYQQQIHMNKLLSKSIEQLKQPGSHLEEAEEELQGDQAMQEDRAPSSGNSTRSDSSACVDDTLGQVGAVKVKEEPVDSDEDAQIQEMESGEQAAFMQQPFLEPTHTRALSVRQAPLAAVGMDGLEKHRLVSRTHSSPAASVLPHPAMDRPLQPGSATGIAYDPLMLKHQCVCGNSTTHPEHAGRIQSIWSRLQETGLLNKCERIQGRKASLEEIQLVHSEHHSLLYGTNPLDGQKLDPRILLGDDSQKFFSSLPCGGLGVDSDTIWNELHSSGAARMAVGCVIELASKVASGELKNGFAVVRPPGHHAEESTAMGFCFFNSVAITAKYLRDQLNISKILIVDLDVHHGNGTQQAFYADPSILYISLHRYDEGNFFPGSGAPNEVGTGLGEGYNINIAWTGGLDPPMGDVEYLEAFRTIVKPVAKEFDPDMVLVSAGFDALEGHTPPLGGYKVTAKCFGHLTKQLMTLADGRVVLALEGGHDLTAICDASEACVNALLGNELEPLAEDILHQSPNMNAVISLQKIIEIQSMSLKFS

[1] = molecular target: T1, Protein deacetylase HDAC6 (Homo sapiens, UniProt Q9UBN7); experiment: as §1
T1 sequence (Q9UBN7 whole entry): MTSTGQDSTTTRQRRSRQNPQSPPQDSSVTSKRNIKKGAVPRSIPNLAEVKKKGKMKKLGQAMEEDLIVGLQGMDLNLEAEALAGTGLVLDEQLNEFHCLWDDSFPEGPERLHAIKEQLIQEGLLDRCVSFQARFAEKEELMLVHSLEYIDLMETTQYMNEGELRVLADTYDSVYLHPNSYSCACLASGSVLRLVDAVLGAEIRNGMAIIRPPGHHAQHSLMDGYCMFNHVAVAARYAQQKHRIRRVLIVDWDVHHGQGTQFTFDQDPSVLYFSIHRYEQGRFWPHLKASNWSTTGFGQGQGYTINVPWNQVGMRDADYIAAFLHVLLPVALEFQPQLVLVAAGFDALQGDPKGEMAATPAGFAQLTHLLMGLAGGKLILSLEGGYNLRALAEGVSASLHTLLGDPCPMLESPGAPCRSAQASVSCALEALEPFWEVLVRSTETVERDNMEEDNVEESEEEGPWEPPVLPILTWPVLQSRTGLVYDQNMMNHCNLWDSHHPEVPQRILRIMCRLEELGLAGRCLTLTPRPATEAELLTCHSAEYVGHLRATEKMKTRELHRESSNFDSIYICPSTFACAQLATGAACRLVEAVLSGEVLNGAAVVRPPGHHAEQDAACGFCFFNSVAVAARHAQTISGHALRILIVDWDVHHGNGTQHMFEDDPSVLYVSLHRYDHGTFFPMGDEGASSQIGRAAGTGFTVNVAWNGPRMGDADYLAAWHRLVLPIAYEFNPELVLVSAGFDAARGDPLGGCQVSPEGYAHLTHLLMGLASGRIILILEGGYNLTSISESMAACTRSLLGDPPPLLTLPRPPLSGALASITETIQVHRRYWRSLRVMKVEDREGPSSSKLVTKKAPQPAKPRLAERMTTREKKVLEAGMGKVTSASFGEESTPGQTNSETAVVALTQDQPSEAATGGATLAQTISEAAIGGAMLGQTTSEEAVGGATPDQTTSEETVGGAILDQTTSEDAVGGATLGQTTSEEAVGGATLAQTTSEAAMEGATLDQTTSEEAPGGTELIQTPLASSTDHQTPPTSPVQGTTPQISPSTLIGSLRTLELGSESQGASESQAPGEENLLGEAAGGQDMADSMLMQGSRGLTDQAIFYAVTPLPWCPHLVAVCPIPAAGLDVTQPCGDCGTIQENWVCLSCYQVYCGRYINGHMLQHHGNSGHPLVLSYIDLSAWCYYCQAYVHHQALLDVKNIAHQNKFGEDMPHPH

[2] = molecular target: T2, Polyamine deacetylase HDAC10 (Homo sapiens, UniProt Q969S8); experiment: as §1
T2 sequence (Q969S8 whole entry): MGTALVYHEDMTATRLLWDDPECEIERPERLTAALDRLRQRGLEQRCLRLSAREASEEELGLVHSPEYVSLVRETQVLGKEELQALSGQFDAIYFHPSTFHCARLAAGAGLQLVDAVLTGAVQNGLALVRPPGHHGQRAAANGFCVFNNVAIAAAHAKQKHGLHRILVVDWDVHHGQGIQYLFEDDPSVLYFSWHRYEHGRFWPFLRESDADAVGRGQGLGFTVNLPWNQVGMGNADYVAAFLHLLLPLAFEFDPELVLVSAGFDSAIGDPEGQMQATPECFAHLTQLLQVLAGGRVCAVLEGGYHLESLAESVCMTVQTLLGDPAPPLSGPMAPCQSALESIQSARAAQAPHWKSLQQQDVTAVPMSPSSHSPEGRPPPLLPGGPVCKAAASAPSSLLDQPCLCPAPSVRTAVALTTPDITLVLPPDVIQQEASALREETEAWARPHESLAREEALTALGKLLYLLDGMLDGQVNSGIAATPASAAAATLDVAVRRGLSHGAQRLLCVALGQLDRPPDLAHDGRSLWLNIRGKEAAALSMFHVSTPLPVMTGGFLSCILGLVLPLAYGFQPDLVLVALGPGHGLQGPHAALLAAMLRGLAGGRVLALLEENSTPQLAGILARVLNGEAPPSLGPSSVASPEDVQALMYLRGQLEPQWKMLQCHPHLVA

Histone deacetylase 11 = molecular target: T3, Histone deacetylase 11 (Homo sapiens, UniProt Q96DB2); experiment: as §1
T3 sequence (Q96DB2 whole entry): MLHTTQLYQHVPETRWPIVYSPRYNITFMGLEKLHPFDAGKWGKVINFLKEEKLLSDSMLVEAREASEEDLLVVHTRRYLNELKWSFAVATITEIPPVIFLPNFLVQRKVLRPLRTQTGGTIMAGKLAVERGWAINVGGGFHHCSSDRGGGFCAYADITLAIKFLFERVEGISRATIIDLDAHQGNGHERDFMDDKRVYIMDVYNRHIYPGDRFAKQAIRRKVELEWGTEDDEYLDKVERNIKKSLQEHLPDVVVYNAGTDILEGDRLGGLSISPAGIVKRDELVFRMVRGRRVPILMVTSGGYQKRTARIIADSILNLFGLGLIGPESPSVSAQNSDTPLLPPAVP

Histone deacetylase 8 = molecular target: T4, Histone deacetylase 8 (Homo sapiens, UniProt Q9BY41); experiment: as §1
T4 sequence (Q9BY41 whole entry): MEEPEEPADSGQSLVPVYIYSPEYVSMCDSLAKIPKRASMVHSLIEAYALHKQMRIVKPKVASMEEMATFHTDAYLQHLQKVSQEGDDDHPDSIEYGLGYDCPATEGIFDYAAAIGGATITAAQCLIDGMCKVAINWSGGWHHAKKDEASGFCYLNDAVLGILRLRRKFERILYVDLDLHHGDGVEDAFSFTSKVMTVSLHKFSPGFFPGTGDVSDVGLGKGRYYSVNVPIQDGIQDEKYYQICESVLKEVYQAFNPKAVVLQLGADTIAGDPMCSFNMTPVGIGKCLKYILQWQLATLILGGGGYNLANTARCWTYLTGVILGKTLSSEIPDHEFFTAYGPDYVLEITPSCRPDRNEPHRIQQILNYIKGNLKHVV

Histone deacetylase 7 = molecular target: T5, Histone deacetylase 7 (Homo sapiens, UniProt Q8WUI4); experiment: as §1
T5 sequence (Q8WUI4 whole entry): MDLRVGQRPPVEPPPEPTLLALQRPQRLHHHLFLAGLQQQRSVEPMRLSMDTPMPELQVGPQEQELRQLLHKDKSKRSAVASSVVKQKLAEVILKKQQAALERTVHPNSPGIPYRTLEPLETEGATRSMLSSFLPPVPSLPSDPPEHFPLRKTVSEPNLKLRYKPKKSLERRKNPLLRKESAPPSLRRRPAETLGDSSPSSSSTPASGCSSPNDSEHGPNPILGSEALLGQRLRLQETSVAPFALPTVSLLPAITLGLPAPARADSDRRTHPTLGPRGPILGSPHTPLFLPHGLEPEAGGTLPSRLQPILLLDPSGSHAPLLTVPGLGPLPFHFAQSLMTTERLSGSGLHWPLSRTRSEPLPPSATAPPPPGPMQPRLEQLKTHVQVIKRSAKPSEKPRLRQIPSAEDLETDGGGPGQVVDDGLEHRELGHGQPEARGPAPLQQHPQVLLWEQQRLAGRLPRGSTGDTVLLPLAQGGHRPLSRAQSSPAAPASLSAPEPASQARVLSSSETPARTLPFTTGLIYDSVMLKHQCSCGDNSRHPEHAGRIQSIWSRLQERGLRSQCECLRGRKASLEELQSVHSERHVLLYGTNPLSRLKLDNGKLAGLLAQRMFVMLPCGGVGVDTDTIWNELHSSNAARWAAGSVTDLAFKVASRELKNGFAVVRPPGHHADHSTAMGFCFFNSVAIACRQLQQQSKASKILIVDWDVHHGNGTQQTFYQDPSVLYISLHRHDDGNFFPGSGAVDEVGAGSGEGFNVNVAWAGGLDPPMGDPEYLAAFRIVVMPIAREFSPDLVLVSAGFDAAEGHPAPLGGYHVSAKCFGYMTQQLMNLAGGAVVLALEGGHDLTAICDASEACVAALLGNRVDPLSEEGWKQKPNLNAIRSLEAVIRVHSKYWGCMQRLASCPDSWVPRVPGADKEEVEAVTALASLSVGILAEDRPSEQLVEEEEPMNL

Histone deacetylase 5 = Histone deacetylase 5 (Homo sapiens, UniProt Q9UQL6); experiment: as §1
Sequence of Histone deacetylase 5 (Q9UQL6 whole entry): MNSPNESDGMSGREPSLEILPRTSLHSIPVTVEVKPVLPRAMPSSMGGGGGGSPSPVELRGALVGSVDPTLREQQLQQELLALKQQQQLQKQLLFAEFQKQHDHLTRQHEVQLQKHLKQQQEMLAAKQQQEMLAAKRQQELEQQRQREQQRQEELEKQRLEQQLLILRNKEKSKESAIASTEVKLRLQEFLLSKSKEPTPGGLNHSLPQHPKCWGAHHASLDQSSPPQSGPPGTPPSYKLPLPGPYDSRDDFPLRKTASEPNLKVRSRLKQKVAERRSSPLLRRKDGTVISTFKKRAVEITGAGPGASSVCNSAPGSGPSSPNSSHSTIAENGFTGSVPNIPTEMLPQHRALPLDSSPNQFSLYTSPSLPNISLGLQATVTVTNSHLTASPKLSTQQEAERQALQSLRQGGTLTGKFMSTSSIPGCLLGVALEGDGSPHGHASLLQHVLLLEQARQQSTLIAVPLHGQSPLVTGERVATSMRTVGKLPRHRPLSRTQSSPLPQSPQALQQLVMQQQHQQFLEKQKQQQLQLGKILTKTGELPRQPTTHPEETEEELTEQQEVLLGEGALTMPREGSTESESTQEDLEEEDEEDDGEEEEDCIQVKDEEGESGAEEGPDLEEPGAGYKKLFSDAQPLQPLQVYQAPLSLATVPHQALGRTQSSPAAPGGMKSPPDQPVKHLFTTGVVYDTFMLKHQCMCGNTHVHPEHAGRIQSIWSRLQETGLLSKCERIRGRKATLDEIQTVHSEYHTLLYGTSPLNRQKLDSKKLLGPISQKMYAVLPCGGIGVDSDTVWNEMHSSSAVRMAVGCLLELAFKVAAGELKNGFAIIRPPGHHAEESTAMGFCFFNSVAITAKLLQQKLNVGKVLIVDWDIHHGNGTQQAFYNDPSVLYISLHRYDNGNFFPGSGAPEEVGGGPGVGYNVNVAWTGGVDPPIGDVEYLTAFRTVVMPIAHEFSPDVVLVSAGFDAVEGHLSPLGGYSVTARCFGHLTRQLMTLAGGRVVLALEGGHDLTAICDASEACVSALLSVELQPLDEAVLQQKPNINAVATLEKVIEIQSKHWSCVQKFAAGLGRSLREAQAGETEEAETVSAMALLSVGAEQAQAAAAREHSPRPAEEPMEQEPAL

Histone deacetylase 3 = Histone deacetylase 3 (Homo sapiens, UniProt O15379); experiment: as §1
Sequence of Histone deacetylase 3 (O15379 whole entry): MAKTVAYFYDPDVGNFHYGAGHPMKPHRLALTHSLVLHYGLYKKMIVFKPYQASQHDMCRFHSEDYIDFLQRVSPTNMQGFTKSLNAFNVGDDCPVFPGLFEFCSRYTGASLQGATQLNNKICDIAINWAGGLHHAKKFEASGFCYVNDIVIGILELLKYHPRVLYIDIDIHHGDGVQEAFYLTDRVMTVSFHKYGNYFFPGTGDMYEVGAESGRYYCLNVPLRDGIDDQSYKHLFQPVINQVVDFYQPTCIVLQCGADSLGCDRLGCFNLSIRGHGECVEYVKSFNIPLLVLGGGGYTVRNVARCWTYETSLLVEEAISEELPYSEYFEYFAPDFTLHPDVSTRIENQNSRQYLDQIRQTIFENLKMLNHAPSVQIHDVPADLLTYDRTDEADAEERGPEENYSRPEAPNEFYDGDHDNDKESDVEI

Sequence of Histone deacetylase 4 (P56524 whole entry): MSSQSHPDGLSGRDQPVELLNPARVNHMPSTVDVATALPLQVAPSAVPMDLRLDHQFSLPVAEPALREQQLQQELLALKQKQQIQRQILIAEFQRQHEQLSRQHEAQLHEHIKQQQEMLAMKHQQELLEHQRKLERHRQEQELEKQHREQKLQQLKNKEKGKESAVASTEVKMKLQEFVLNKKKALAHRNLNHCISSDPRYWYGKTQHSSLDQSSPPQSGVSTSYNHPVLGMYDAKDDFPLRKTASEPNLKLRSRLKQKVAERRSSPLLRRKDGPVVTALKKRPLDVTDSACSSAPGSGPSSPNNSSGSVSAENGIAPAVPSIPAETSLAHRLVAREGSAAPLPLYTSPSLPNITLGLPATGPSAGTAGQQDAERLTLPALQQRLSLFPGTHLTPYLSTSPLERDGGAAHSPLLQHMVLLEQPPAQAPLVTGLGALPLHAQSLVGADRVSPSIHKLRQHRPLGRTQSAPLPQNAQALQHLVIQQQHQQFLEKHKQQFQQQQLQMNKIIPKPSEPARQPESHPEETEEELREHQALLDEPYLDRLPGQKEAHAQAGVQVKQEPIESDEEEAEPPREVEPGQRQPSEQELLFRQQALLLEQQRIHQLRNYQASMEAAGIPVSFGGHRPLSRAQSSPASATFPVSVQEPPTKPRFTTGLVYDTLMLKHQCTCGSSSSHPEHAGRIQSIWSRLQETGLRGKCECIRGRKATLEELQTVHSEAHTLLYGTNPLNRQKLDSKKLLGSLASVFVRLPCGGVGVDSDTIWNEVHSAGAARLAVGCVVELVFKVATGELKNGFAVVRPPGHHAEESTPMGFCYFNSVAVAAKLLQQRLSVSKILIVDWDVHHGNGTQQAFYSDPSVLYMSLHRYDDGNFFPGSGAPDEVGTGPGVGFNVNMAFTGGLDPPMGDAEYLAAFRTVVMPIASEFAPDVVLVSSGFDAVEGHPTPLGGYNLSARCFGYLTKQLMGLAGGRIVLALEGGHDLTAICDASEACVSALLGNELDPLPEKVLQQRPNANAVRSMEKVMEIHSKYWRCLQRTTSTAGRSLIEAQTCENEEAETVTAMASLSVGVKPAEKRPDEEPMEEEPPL
Sequence of Histone deacetylase 1 (Q13547 whole entry): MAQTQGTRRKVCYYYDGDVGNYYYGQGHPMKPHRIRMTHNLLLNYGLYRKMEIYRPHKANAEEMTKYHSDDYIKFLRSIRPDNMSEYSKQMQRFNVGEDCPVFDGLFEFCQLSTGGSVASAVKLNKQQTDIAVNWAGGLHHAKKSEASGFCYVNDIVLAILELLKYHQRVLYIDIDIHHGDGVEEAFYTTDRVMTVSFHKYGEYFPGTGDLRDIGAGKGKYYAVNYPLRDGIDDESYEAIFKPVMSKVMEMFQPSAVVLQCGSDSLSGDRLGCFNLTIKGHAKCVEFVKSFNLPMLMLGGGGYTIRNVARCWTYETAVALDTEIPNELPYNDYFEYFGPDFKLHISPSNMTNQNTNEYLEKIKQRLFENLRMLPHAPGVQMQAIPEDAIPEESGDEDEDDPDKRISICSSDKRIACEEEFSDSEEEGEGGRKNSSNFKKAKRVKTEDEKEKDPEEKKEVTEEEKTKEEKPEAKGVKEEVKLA

`CN(Cc1ccc(/C=C/C(=O)NO)cc1F)CC12CC3CC(CC(C3)C1)C2` was tested, and the IC50 (Histone deacetylase 1) was 17 nM, the IC50 (Histone deacetylase 4) was > 1000 nM and the IC50 (Histone deacetylase 9) was > 1000 nM. The IC50 [1] was 180 nM, the IC50 [2] was 33 nM and the IC50 (Histone deacetylase 11) was > 1000 nM. The IC50 (Histone deacetylase 8) was > 1000 nM, the IC50 (Histone deacetylase 7) was > 1000 nM and the IC50 (Histone deacetylase 5) was > 1000 nM. For the same compound, the IC50 (Histone deacetylase 3) was 23 nM.

In the case of `O=C(CCCCCCNC(=O)c1cnc(N(c2ccccc2)c2ccccc2)nc1)NO` [RICOLINOSTAT], the IC50 [2] is reported as > 1000 nM.

`CC(=O)Nc1ccc(C(=O)Nc2ccccc2N)cc1` [TACEDINALINE] gave an IC50 (Histone deacetylase 11) of 2830 nM.
